# Assay results reported in ChEMBL document CHEMBL5291721, “A preclinical secondary pharmacology resource illuminates target-adverse drug reaction associations of marketed drugs” (Nat Commun, 2023).
# Tests used:
# [1] = molecular target: T1, Cholecystokinin receptor type A (Homo sapiens, UniProt P32238)
# T1 sequence (P32238 whole entry): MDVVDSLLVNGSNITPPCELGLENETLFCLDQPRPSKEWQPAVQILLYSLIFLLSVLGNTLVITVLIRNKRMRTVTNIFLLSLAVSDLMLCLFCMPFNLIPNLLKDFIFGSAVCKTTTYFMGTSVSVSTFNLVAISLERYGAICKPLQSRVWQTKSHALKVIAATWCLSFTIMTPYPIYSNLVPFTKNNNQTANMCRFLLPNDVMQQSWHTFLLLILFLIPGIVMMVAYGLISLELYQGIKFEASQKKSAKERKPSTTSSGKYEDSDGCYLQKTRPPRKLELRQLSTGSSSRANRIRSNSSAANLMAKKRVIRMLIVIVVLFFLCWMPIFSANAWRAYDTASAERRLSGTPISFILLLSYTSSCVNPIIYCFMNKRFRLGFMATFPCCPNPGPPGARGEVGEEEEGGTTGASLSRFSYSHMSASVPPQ
# [2] = molecular target: T2, Muscarinic acetylcholine receptor M2 (Homo sapiens, UniProt P08172); type: functional, cell-based
# T2 sequence (P08172 whole entry): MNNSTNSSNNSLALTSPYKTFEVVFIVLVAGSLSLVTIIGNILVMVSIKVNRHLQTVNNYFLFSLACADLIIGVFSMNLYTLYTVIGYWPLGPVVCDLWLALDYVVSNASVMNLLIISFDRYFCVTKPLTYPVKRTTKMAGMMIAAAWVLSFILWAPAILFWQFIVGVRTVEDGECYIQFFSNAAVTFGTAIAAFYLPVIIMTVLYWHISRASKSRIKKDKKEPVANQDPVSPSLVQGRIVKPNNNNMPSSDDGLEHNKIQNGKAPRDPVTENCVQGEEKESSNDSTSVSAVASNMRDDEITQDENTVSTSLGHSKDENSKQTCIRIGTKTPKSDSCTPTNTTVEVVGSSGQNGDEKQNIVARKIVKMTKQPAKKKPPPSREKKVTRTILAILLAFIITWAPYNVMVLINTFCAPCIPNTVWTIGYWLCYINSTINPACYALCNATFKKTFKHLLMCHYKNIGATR
# [3] = molecular target: Bile salt export pump (Homo sapiens, UniProt O95342); type: functional
# Sequence of Bile salt export pump (O95342 whole entry): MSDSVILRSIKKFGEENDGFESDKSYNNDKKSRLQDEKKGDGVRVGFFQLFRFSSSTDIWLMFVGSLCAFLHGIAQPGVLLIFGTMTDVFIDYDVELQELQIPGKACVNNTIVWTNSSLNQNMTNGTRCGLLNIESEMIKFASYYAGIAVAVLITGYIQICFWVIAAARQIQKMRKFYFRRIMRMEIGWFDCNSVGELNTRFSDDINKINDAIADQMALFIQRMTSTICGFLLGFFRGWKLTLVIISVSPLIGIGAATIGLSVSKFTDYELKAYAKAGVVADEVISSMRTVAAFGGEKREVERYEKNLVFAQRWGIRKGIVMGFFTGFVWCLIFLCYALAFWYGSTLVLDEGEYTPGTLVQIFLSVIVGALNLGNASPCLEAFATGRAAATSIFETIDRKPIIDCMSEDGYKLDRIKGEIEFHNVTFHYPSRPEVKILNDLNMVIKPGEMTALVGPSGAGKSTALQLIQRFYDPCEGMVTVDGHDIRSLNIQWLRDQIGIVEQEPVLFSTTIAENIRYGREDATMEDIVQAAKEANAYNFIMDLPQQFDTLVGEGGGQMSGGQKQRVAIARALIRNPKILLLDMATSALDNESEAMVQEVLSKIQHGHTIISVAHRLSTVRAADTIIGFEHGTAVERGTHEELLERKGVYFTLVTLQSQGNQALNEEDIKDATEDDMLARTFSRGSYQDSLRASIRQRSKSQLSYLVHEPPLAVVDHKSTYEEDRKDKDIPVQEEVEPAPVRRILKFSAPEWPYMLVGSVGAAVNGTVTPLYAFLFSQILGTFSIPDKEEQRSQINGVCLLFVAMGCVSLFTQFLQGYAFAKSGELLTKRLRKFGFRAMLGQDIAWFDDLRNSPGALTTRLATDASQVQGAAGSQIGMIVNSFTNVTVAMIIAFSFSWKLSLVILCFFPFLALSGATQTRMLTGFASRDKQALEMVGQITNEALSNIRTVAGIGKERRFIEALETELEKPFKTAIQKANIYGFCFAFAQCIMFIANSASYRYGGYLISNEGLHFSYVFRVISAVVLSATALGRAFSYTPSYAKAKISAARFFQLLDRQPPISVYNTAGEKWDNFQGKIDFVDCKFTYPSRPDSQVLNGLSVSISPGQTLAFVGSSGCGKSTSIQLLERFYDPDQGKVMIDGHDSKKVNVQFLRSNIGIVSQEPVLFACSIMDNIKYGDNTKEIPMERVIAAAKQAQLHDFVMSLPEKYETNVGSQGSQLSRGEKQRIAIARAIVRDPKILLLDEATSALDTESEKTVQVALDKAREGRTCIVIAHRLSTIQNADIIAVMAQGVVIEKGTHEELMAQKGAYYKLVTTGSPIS
# [4] = molecular target: 5-hydroxytryptamine receptor 2B (Homo sapiens, UniProt P41595); type: functional, cell-based
# Sequence of 5-hydroxytryptamine receptor 2B (P41595 whole entry): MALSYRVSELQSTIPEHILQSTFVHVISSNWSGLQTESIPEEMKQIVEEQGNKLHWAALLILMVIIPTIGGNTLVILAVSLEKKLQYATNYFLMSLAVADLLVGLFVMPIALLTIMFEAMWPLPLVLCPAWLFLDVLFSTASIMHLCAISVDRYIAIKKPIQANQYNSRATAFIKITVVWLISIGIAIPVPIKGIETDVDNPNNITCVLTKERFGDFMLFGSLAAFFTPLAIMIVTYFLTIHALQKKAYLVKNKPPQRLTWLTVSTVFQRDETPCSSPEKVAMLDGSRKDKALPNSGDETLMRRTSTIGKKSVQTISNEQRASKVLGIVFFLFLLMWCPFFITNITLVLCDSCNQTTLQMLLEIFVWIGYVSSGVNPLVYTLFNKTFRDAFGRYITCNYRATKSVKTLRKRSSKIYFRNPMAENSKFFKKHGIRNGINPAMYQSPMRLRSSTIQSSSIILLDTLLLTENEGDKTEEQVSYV
# [5] = molecular target: Sodium-dependent noradrenaline transporter (Homo sapiens, UniProt P23975)
# Sequence of Sodium-dependent noradrenaline transporter (P23975 whole entry): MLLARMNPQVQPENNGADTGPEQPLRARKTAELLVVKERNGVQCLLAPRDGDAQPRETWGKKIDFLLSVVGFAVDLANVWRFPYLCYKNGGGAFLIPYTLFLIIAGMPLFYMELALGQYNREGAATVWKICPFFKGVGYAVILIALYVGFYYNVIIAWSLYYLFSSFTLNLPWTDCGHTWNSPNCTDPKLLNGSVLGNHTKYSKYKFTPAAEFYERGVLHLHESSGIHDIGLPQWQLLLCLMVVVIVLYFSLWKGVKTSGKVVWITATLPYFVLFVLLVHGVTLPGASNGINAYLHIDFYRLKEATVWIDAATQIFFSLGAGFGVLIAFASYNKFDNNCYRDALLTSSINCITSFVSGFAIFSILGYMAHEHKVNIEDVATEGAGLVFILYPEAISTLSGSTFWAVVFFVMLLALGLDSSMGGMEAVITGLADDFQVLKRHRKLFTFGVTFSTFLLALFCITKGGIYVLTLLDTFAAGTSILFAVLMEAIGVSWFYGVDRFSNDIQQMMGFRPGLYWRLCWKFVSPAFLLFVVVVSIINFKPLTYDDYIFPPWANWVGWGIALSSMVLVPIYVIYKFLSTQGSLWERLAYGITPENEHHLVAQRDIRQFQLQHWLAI
# [6] = molecular target: Beta-1 adrenergic receptor (Homo sapiens, UniProt P08588); type: functional
# Sequence of Beta-1 adrenergic receptor (P08588 whole entry): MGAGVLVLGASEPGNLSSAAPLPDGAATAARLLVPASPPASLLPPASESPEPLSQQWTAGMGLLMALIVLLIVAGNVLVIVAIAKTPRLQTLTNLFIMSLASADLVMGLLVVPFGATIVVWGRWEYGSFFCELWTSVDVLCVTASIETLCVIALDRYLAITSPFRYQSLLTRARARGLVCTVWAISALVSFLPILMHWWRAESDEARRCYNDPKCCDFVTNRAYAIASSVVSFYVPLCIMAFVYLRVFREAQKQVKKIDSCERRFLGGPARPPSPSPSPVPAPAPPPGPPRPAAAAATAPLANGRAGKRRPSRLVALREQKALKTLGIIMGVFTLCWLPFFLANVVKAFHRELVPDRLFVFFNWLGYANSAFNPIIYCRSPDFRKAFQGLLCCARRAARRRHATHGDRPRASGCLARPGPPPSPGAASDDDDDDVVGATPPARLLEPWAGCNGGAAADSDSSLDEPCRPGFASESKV
# [7] = molecular target: T3, Equilibrative nucleoside transporter 1 (Homo sapiens, UniProt Q99808)
# T3 sequence (Q99808 whole entry): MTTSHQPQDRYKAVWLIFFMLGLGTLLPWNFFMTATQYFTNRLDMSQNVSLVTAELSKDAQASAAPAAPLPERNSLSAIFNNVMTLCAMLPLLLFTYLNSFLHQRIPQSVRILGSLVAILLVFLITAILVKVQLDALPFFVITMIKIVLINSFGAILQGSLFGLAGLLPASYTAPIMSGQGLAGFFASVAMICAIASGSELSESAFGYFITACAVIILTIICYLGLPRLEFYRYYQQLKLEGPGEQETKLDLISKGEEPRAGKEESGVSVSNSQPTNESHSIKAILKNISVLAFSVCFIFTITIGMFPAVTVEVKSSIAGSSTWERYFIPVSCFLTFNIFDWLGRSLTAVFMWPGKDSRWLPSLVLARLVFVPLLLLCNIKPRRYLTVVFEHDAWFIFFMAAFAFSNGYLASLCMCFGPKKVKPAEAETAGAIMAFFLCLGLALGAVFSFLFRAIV
# [8] = molecular target: T4, Alpha-2C adrenergic receptor (Homo sapiens, UniProt P18825); type: functional
# T4 sequence (P18825 whole entry): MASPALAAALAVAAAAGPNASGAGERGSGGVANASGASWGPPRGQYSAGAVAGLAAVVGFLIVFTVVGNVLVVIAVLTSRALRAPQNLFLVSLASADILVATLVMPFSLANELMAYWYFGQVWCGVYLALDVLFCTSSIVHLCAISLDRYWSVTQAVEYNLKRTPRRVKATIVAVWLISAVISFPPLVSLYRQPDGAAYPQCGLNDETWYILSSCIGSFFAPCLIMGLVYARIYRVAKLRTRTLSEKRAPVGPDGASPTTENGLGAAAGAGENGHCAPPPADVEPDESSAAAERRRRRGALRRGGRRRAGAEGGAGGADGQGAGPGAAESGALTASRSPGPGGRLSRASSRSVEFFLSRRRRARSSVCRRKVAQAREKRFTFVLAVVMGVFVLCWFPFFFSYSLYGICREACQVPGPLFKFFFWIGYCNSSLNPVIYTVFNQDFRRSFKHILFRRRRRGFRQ
# [9] = molecular target: Sodium-dependent dopamine transporter (Homo sapiens, UniProt Q01959)
# Sequence of Sodium-dependent dopamine transporter (Q01959 whole entry): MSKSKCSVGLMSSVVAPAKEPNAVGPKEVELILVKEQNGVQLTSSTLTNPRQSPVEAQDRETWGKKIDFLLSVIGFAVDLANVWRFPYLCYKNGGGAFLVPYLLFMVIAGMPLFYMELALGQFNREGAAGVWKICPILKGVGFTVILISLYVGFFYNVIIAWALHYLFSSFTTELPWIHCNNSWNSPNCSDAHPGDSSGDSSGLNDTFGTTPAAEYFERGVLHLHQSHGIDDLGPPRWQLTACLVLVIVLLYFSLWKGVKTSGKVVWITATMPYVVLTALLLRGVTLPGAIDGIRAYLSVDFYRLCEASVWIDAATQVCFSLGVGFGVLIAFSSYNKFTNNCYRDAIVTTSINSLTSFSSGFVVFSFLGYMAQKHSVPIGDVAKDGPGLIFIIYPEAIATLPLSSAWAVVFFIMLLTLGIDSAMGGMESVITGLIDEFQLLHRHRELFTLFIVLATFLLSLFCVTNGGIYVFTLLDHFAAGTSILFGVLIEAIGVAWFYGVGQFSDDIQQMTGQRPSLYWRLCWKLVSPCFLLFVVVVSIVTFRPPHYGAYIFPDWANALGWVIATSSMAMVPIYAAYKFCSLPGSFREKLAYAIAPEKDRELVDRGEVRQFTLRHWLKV
# [10] = molecular target: Neuronal acetylcholine receptor subunit alpha-4 (Homo sapiens, UniProt P43681)
# Sequence of Neuronal acetylcholine receptor subunit alpha-4 (P43681 whole entry): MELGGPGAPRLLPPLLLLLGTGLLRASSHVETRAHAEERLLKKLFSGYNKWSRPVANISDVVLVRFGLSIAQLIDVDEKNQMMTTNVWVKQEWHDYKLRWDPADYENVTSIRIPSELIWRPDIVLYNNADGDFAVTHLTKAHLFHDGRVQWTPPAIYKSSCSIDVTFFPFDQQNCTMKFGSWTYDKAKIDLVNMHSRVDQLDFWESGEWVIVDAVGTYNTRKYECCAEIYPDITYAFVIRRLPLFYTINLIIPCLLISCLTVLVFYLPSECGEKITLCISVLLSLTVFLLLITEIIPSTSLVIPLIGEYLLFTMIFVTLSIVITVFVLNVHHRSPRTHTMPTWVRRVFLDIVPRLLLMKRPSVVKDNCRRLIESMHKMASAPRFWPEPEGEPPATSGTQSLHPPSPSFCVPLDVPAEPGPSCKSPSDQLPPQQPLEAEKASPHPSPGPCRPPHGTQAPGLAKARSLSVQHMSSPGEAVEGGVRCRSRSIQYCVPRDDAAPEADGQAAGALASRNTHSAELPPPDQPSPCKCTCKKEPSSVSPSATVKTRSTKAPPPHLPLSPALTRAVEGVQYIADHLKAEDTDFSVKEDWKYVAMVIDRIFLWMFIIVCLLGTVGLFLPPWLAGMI
# [11] = molecular target: T5, 5-hydroxytryptamine receptor 3A (Homo sapiens, UniProt P46098); type: functional
# T5 sequence (P46098 whole entry): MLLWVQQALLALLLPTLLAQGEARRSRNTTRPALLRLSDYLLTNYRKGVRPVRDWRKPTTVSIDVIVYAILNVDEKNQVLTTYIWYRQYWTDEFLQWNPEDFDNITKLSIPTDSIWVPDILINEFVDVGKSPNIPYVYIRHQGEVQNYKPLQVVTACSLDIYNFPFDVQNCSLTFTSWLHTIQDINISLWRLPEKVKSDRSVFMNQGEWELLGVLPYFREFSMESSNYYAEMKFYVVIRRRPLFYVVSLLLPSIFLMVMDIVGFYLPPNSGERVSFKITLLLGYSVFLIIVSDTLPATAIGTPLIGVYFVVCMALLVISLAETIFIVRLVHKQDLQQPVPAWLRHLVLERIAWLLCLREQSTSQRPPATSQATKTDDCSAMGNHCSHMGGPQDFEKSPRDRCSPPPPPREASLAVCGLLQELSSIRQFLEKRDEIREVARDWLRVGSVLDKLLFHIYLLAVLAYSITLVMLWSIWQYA
# [12] = molecular target: D(3) dopamine receptor (Homo sapiens, UniProt P35462)
# Sequence of D(3) dopamine receptor (P35462 whole entry): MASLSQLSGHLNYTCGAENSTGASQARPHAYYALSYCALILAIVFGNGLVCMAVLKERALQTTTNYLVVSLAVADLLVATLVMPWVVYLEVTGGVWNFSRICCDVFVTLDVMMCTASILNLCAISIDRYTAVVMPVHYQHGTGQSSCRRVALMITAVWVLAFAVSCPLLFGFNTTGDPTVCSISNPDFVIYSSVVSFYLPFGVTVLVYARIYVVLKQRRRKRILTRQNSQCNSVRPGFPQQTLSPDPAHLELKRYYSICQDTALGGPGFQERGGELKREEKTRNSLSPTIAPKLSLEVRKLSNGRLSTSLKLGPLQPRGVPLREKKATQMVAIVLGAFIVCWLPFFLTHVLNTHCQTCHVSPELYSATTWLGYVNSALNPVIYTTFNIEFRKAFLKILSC
# Further: assay procedure not described here.
Compound,AC50 [1],AC50 [2],AC50 [3],AC50 [4],AC50 [5],AC50 [6],AC50 [7],AC50 [8],AC50 [9],AC50 [10],AC50 [11],AC50 [12]
COc1ccc(CC(C)(C)NC[C@H](O)c2cc(O)cc3c2OCC(=O)N3)cc1 [OLODATEROL],> 30 µM,5.1 µM,> 300 µM,> 30 µM,> 30 µM,0.58 µM,> 30 µM,> 30 µM,11 µM,> 30 µM,> 30 µM,> 30 µM
CC1(C)NC(=O)N(c2ccc([N+](=O)[O-])c(C(F)(F)F)c2)C1=O [NILUTAMIDE],> 30 µM,> 30 µM,> 300 µM,> 30 µM,> 30 µM,> 30 µM,> 30 µM,> 30 µM,> 30 µM,> 30 µM,> 30 µM,> 30 µM
CC[C@H]1[C@@H](O)[C@@H]2[C@H](CC[C@]3(C)[C@@H]([C@H](C)CCC(=O)O)CC[C@@H]23)[C@@]2(C)CC[C@@H](O)C[C@@H]12 [OBETICHOLIC ACID],> 30 µM,16 µM,> 300 µM,> 30 µM,> 30 µM,> 30 µM,> 30 µM,> 30 µM,> 30 µM,> 30 µM,> 30 µM,> 30 µM
CN(C)/N=N/c1[nH]cnc1C(N)=O [DACARBAZINE],> 10 µM,> 10 µM,> 300 µM,> 10 µM,> 10 µM,> 10 µM,> 10 µM,> 10 µM,> 10 µM,> 10 µM,> 30 µM,> 30 µM
CO[C@H]1C[C@@H]2CC[C@@H](C)[C@@](O)(O2)C(=O)C(=O)N2CCCC[C@H]2C(=O)O[C@H]([C@H](C)C[C@@H]2CC[C@@H](O)[C@H](OC)C2)CC(=O)[C@H](C)/C=C(\C)[C@@H](O)[C@@H](OC)C(=O)[C@H](C)C[C@H](C)/C=C/C=C/C=C/1C [SIROLIMUS],> 30 µM,> 10 µM,1.01 µM,> 10 µM,> 30 µM,> 10 µM,6.8 µM,> 10 µM,> 30 µM,> 10 µM,> 30 µM,0.87 µM
CCC(C)n1ncn(-c2ccc(N3CCN(c4ccc(OCC5COC(Cn6cncn6)(c6ccc(Cl)cc6Cl)O5)cc4)CC3)cc2)c1=O (stereo not given) [ITRACONAZOLE],> 30 µM,> 30 µM,0.66 µM,> 30 µM,> 30 µM,> 30 µM,> 30 µM,> 30 µM,> 30 µM,> 30 µM,> 30 µM,> 30 µM
Cc1cn([C@H]2C[C@H](N=[N+]=[N-])[C@@H](CO)O2)c(=O)[nH]c1=O [ZIDOVUDINE],> 30 µM,> 10 µM,> 300 µM,> 10 µM,> 10 µM,> 10 µM,> 30 µM,> 10 µM,> 10 µM,> 10 µM,> 30 µM,> 10 µM
O=C(OCC(O)CO)c1ccccc1Nc1ccnc2cc(Cl)ccc12 (stereo not given) [GLAFENINE],> 30 µM,> 10 µM,15 µM,> 30 µM,> 30 µM,> 30 µM,8.1 µM,> 30 µM,> 30 µM,> 30 µM,> 30 µM,> 30 µM

# Further lines, results first:
AC50 [1],AC50 [2],AC50 [3],AC50 [4],AC50 [5],AC50 [6],AC50 [7],AC50 [8],AC50 [9],AC50 [10],AC50 [11],AC50 [12],Compound
> 30 µM,> 30 µM,> 300 µM,> 30 µM,> 10 µM,> 10 µM,> 30 µM,1.31 µM,> 10 µM,> 10 µM,> 30 µM,> 10 µM,Clc1ccc2nsnc2c1NC1=NCCN1 [TIZANIDINE]
> 10 µM,> 10 µM,34 µM,> 10 µM,15.7 µM,> 10 µM,24.4 µM,> 10 µM,5.86 µM,> 10 µM,> 30 µM,> 30 µM,Cc1ccc(-c2cc(C(F)(F)F)nn2-c2ccc(S(N)(=O)=O)cc2)cc1 [CELECOXIB]
> 30 µM,> 30 µM,> 300 µM,> 30 µM,> 30 µM,7.8 µM,> 30 µM,1.4 µM,> 30 µM,> 30 µM,> 30 µM,18 µM,COc1ccccc1OCC(O)CN1CCN(CC(=O)Nc2c(C)cccc2C)CC1 (stereo not given) [RANOLAZINE]
> 30 µM,> 10 µM,> 300 µM,> 10 µM,7.7 µM,> 10 µM,> 30 µM,> 10 µM,1.46 µM,> 10 µM,> 10 µM,> 10 µM,CN(C)CCC(c1ccc(Cl)cc1)c1ccccn1 (stereo not given) [CHLORPHENIRAMINE]
> 10 µM,> 10 µM,> 300 µM,> 10 µM,> 10 µM,> 10 µM,> 10 µM,> 10 µM,> 10 µM,> 10 µM,> 30 µM,> 10 µM,Nc1ccn([C@H]2CC[C@@H](CO)O2)c(=O)n1 [ZALCITABINE]
> 10 µM,> 10 µM,> 300 µM,> 10 µM,> 10 µM,> 10 µM,> 10 µM,> 10 µM,> 10 µM,> 10 µM,> 30 µM,> 30 µM,NS(=O)(=O)Cc1noc2ccccc12 [ZONISAMIDE]
> 30 µM,> 30 µM,> 300 µM,> 30 µM,> 30 µM,> 30 µM,> 30 µM,> 30 µM,> 30 µM,> 30 µM,> 30 µM,> 30 µM,CCCCN1C[C@H](O)[C@@H](O)[C@H](O)[C@H]1CO
